Legend:
[1] = target: hERG (KCNH2) (Homo sapiens, UniProt Q12809); test: Inhibition of human ERG at 10 uM
[2] = species on record: Homo sapiens; test: Inhibition of Purinergic P2Y receptor (unknown origin) at 10 uM
[3] = target: Sodium- and chloride-dependent GABA transporter 1 (Homo sapiens) (UniProt P30531); test: Inhibition of GABA transporter (unknown origin) at 10 uM
[4] = target: Adenosine receptor A2a (Homo sapiens) (UniProt P29274); test: Inhibition of Adenosine A2A receptor (unknown origin) at 10 uM
Chain of Adenosine receptor A2a (Homo sapiens) (P29274 whole entry): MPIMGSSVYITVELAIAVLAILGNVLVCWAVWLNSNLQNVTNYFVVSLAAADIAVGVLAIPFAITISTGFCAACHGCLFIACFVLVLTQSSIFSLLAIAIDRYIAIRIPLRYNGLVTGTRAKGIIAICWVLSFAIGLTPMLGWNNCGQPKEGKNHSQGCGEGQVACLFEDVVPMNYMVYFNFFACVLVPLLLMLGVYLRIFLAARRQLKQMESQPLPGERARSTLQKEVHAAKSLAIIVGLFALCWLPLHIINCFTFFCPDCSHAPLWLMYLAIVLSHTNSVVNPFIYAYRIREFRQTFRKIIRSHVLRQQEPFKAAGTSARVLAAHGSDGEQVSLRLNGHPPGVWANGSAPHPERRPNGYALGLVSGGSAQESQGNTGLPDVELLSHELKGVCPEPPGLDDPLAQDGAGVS

[5] = target: Endothelin-1 receptor (Homo sapiens) (UniProt P25101); test: Inhibition of ETA receptor (unknown origin) at 10 uM
Chain of Endothelin-1 receptor (Homo sapiens) (P25101 whole entry): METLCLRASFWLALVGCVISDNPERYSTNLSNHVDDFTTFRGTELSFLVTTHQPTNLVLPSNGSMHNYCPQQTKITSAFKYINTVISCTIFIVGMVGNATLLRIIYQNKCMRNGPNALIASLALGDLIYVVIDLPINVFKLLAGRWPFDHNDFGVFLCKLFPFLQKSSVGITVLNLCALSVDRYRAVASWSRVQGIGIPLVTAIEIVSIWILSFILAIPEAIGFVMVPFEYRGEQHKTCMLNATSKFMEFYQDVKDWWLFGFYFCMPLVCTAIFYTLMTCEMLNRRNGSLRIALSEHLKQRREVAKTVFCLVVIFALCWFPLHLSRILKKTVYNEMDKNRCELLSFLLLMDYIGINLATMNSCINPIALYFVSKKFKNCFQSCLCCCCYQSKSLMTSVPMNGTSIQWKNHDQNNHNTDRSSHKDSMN

[6] = target: 5-hydroxytryptamine receptor 2B (Homo sapiens) (UniProt P41595); test: Inhibition of 5-HT2B receptor (unknown origin) at 10 uM
Chain of 5-hydroxytryptamine receptor 2B (Homo sapiens) (P41595 whole entry): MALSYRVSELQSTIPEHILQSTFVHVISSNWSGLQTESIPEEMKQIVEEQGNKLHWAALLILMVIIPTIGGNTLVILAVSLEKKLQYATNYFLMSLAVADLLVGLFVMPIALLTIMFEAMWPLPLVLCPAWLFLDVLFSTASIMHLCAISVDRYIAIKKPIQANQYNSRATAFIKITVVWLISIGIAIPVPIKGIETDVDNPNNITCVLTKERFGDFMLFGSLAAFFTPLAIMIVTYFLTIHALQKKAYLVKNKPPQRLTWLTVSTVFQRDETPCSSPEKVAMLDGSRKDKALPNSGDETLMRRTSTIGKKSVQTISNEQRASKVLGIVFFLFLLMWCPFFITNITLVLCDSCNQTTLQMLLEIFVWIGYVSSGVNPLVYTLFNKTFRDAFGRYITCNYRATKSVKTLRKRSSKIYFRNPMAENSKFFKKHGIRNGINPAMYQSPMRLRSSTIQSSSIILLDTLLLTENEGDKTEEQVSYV

[7] = species on record: Homo sapiens; test: Inhibition of GABAA receptor central muscimol site (unknown origin) at 10 uM
[8] = target: Indoleamine 2,3-dioxygenase 1 (Homo sapiens, UniProt P14902); test: Inhibition of human Indoleamine 2,3-dioxygenase using L-tryptophan as substrate by emission fluorescence analysis
Chain of Indoleamine 2,3-dioxygenase 1 (P14902 whole entry): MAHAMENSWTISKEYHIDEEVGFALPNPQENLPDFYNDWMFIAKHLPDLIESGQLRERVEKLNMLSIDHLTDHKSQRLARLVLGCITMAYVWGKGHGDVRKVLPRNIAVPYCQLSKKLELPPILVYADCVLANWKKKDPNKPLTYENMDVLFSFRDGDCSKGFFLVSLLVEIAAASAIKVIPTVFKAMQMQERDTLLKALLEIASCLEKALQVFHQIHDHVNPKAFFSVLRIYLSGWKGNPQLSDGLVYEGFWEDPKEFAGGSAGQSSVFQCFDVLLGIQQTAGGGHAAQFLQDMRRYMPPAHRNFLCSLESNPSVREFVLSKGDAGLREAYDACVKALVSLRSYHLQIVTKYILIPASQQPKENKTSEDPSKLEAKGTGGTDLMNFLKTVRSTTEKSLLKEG

[9] = tested on: Mus musculus; test: Decrease in ratio of kynurenine to tryptophan in C57BL/6 mouse at 50 mg/kg, po after 2 hrs by LC-MS/MS analysis; assay type: functional; conditions: C57BL/6, po
[10] = target: Estrogen receptor (Homo sapiens) (UniProt P03372); test: Inhibition of ERalpha (unknown origin) at 10 uM
Chain of Estrogen receptor (Homo sapiens) (P03372 whole entry): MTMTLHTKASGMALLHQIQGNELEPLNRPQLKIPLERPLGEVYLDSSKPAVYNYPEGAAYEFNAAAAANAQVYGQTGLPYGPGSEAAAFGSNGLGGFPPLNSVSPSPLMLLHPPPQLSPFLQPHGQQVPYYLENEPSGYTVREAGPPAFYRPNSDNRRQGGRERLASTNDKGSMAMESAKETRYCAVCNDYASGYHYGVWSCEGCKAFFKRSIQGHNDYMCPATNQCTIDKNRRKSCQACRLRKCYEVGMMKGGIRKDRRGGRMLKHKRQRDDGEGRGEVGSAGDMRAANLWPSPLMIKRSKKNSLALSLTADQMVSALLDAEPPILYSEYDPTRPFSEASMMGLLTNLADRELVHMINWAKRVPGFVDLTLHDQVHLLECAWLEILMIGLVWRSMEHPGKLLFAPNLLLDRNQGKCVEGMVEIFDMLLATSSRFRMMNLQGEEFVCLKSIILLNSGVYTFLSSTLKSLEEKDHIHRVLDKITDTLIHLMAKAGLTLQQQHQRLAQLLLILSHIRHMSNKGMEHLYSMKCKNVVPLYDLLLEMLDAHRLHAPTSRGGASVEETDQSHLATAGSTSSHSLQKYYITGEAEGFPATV

[11] = AUC (0 to infinity) in Sprague-Dawley rat plasma at 2 mg/kg, iv by LC-MS/MS analysis; assay type: ADME, organism-based; design: dose 2 mg/kg, route intravenous, time infinity
[12] = species on record: Homo sapiens; test: Inhibition of D4.2 receptor (unknown origin) at 10 uM
[13] = target: Androgen receptor (Homo sapiens) (UniProt P10275); test: Inhibition of Androgen receptor (unknown origin) at 10 uM
[14] = target: Alpha-1B adrenergic receptor (Homo sapiens) (UniProt P35368); test: Inhibition of Adrenergic alpha1B receptor (unknown origin) at 10 uM
[15] = target: Endothelin receptor type B (Homo sapiens) (UniProt P24530); test: Inhibition of ETB receptor (unknown origin) at 10 uM
Chain of Endothelin receptor type B (Homo sapiens) (P24530 whole entry): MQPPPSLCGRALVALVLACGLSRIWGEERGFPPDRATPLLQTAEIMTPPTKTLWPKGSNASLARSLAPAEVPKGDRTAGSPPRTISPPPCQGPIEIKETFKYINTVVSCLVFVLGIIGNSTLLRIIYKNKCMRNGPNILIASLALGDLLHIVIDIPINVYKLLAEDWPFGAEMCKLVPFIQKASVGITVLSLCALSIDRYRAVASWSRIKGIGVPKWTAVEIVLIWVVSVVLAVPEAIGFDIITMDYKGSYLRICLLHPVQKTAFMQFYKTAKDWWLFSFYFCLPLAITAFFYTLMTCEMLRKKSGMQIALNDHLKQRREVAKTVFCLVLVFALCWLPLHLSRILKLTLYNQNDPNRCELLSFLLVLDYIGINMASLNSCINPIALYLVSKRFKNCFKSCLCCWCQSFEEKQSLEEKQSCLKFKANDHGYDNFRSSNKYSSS

[16] = Clearance in Sprague-Dawley rat plasma at 2 mg/kg, iv by LC-MS/MS analysis; assay type: ADME, organism-based
[17] = target: Acetylcholine receptor subunit alpha (Homo sapiens) (UniProt P02708); test: Inhibition of Nicotinic acetylcholine alpha1 bungarotoxin binding site (unknown origin) at 10 uM
[18] = tested on: CT26; test: Antitumor activity against mouse CT26 cells xenografted in Balb/c mouse assessed as tumor growth delay at 100 mg/kg, po bid for 22 days; assay type: functional; conditions: 528 h, read-out: TGI
[19] = tested on: CT26; test: Antitumor activity against mouse CT26 cells xenografted in Balb/c mouse assessed as tumor growth delay at 200 mg/kg, po bid for 22 days; assay type: functional; conditions: 528 h, read-out: TGI
[20] = target: L-type calcium channel, dihydropyridine binding site (Homo sapiens, UniProt O60840+Q01668+Q13698+Q13936); test: Inhibition of L-type calcium channel dihydropyridine binding site (unknown origin) at 10 uM; assay type: protein assay
[21] = target: D(2) dopamine receptor (Homo sapiens) (UniProt P14416); test: Inhibition of Dopamine D2S receptor (unknown origin) at 10 uM
[22] = tested on: Mus musculus; test: Decrease in ratio of kynurenine to tryptophan in C57BL/6 mouse at 50 mg/kg, po after 5 hrs by LC-MS/MS analysis; assay type: functional; conditions: C57BL/6, po
[23] = target: Adenosine receptor A1 (Homo sapiens) (UniProt P30542); test: Inhibition of Adenosine A1 receptor (unknown origin) at 10 uM
Chain of Adenosine receptor A1 (Homo sapiens) (P30542 whole entry): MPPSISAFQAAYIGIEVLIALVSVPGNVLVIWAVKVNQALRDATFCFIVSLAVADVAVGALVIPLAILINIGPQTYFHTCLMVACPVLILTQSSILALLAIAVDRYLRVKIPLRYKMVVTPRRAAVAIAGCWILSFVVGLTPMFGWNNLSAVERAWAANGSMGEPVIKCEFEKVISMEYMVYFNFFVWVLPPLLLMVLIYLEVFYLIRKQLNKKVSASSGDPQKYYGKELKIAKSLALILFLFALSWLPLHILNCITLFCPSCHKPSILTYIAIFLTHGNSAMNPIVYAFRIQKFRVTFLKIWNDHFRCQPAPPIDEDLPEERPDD

[24] = target: B2 bradykinin receptor (Homo sapiens) (UniProt P30411); test: Inhibition of Bradykinin B2 receptor (unknown origin) at 10 uM
Chain of B2 bradykinin receptor (Homo sapiens) (P30411 whole entry): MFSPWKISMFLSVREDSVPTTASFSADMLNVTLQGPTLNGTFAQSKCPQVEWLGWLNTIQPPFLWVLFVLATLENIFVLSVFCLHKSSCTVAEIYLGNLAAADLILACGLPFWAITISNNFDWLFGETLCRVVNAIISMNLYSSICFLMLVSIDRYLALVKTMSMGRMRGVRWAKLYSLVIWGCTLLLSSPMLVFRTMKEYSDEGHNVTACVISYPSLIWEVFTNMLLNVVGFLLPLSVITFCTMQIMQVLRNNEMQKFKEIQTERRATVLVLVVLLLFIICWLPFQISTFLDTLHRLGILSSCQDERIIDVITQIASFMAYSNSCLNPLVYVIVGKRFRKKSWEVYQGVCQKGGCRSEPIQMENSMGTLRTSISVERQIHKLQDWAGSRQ

[25] = target: Interleukin-1 receptor type 1 (Homo sapiens) (UniProt P14778); test: Inhibition of IL-1 receptor (unknown origin) at 10 uM
[26] = tested on: CT26; test: Antitumor activity against mouse CT26 cells xenografted in Balb/c mouse assessed as median time to end point at 100 mg/kg, po bid for 22 days; assay type: functional
[27] = tested on: CT26; test: Antitumor activity against mouse CT26 cells xenografted in Balb/c mouse assessed as median time to end point at 400 mg/kg, po bid for 22 days; assay type: functional
[28] = target: L-type calcium channel, benzothiazepine binding site (Homo sapiens, UniProt O60840+Q01668+Q13698+Q13936); test: Inhibition of L-type calcium channel benzothiazepine binding site (unknown origin) at 10 uM; assay type: protein assay
[29] = tested on: Mus musculus; test: Toxicity in BalB/c mouse xenografted with CT26 cells assessed as change in body weight at 100 to 400 mg/kg, po bid for 22 days; assay type: organism-based; conditions: in vivo, 528 h
[30] = target: D(3) dopamine receptor (Homo sapiens) (UniProt P35462); test: Inhibition of Dopamine D3 receptor (unknown origin) at 10 uM
[31] = tested on: Mus musculus; test: Decrease in ratio of kynurenine to tryptophan in Balb/c mouse tumor xenografted with CT26 cells at 100 mg/kg bid for 18 days administered via oral gavage after 2 hrs by LC-MS/MS analysis; assay type: functional
[32] = target: Sodium-dependent serotonin transporter (Homo sapiens) (UniProt P31645); test: Inhibition of Serotonin transporter (unknown origin) at 10 uM
[33] = target: Neuropeptide Y receptor type 2 (Homo sapiens) (UniProt P49146); test: Inhibition of Neuropeptide Y2 receptor (unknown origin) at 10 uM
[34] = species on record: Homo sapiens; test: Inhibition of GABAA receptor central flunitrazepam site (unknown origin) at 10 uM
[35] = target: Thyroid hormone receptor (Homo sapiens) (UniProt P10827+P10828); test: Inhibition of Thyroid hormone receptor (unknown origin) at 10 uM; assay type: protein-complex assay
[36] = target: Glutamate [NMDA] receptor (Homo sapiens) (UniProt Q05586+Q12879+Q13224+O15399+O60391+Q14957+Q8TCU5); test: Inhibition of NMDA receptor glycine binding site (unknown origin) at 10 uM
[37] = target: Gamma-aminobutyric acid type B receptor subunit 1 (Homo sapiens) (UniProt Q9UBS5); test: Inhibition of GABAB1A receptor (unknown origin) at 10 uM
[38] = Oral bioavailability in Sprague-Dawley rat plasma at 10 mg/kg by LC-MS/MS analysis; assay type: ADME, organism-based
[39] = target: Epidermal growth factor receptor (Homo sapiens) (UniProt P00533); test: Inhibition of EGF receptor (unknown origin) at 10 uM
Chain of Epidermal growth factor receptor (Homo sapiens) (P00533 whole entry): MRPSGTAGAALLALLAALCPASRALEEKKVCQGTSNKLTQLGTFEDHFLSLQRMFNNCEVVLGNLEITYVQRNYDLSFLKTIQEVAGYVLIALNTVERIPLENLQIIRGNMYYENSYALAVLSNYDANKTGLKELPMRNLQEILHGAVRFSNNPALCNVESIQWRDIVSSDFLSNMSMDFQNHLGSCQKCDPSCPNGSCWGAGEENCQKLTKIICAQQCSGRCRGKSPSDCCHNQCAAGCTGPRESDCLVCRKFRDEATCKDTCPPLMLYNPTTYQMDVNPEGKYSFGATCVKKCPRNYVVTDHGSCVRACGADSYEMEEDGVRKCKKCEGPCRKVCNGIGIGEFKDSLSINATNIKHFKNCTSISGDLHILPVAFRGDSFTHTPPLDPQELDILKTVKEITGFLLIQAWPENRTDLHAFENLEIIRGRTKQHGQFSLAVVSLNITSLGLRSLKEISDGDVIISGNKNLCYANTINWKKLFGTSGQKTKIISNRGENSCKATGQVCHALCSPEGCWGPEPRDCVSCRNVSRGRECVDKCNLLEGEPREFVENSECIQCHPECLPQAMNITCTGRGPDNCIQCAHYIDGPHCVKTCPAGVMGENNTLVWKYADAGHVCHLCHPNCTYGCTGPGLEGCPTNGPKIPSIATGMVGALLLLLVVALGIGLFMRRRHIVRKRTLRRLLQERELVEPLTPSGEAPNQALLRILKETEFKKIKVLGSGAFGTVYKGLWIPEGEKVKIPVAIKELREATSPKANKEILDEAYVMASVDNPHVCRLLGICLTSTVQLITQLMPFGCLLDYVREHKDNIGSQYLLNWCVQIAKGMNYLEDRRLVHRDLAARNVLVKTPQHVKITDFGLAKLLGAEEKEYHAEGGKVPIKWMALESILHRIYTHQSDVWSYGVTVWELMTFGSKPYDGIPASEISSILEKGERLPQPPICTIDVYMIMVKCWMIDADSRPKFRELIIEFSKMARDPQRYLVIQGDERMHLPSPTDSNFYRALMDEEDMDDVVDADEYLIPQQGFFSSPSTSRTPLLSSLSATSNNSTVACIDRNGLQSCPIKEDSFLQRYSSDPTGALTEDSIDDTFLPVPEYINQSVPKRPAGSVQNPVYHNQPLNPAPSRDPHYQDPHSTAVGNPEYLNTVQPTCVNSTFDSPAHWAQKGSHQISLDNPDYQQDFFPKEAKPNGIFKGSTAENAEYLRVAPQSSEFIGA

[40] = species on record: Homo sapiens; test: Inhibition of potassium channel (unknown origin) at 10 uM
[41] = species on record: Homo sapiens; test: Inhibition of Purinergic P2X receptor (unknown origin) at 10 uM
[42] = target: Muscarinic acetylcholine receptor M3 (Homo sapiens) (UniProt P20309); test: Inhibition of Muscarinic M3 receptor (unknown origin) at 10 uM
[43] = species on record: Homo sapiens; test: Inhibition of MT1 receptor (unknown origin) at 10 uM
[44] = target: D(1A) dopamine receptor (Homo sapiens) (UniProt P21728); test: Inhibition of Dopamine D1 receptor (unknown origin) at 10 uM

O=C1Cc2cc(S(=O)(=O)NNc3ccc(Br)cc3)ccc2N1
inhibition at 10 µM [1]: < 50%
inhibition [2]: < 50%
inhibition [3]: < 50%
inhibition [4]: < 50%
inhibition [5]: < 50%
inhibition [6]: < 50%
inhibition [7]: < 50%
IC50 [8]: 35.8 nM
inhibition in vivo at 50 mg/kg [9]: 31%
inhibition [10]: < 50%
AUC(0-inf) [11]: 2430 ng·h/mL
inhibition [12]: < 50%
inhibition [13]: < 50%
inhibition [14]: < 50%
inhibition [15]: < 50%
clearance [16]: 15.9 mL/min/kg
inhibition [17]: < 50%
inhibition in vivo at 100 mg/kg [18]: 40%
inhibition in vivo at 200 mg/kg [19]: 63%
inhibition at 10 µM [20]: < 50%
inhibition [21]: < 50%
inhibition in vivo at 50 mg/kg [22]: 42%
inhibition [23]: < 50%
inhibition [24]: < 50%
inhibition [25]: < 50%
Time [26]: 4 days
Time [27]: 7.4 days
inhibition at 10 µM [28]: < 50%
Activity [29]: Non-toxic
inhibition [30]: < 50%
inhibition in vivo at 100 mg/kg [31]: 58%
inhibition [32]: < 50%
inhibition [33]: < 50%
inhibition [34]: < 50%
inhibition [35]: < 50%
inhibition [36]: < 50%
inhibition [37]: < 50%
bioavailability [38]: 59%
inhibition [39]: < 50%
inhibition [40]: < 50%
inhibition [41]: < 50%
inhibition [42]: < 50%
inhibition [43]: < 50%
inhibition [44]: < 50%

Source: ChEMBL document CHEMBL3763120, “Phenyl Benzenesulfonylhydrazides Exhibit Selective Indoleamine 2,3-Dioxygenase Inhibition with Potent in Vivo Pharmacodynamic Activity and Antitumor Efficacy” (J Med Chem, 2016)
